Values joined by “and” are separate entries in the source; they are usually repeats but may differ in a detail not shown here. Identical values can stand only once. Like-named read-outs stand apart in the source and are kept apart here.
Assays:
hMetAP2 = molecular target: T1, hMetAP2 (Homo sapiens, UniProt P50579); assay: MetAP enzymatic assay, hMetAP2; assay type: biochemical; settings: Co^2+ versus Mn^2+
T1 construct: made in house

HUVEC [1] = assay: HUVEC proliferation, [3H]-thymidine incorporation assay; assay type: cell-based, human; settings: Homo sapiens, HUVEC
Description: (§1) HCC1954 cells were grown in RPMI1640 containing 10% FBS. HUVEC were grown using the EGM-2 bullet kit (Cambrex) as per manufacturer's instructions. The cells were maintained in a humidified incubator adjusted to 5% CO2. For drug screening, 10 mM stock solutions of Johns Hopkins Drug Library were arrayed in 96-well plates and screened at a final concentration of 10 μM. The cell growth was determined using a [^3H]-thymidine incorporation assay. Cells (typically 5,000 cells/well) were seeded in 96-well plates containing 0.2 ml of growth media and allowed to adhere for 24 h. The cells were then treated with drugs for 24 h. Cells were pulsed with 1 μCi [^3H]-thymidine (MP Biomedicals, 6.7 Ci mmol^−1) for 8 h and harvested, upon trypsin treatment, onto glass fiber filters (Wallac, Turku, Finland), from which ^3H counts were determined using a Perkin Elmer MicroBeta plate reader.

HFF = HFF proliferation (selectivity); assay type: cell-based; settings: Homo sapiens, HFF; Table 2
[2] = test system: breast cancer cells as well as human umbilical vein endothelial cells (HUVECs); assay: Cell proliferation assay, breast cancer cells and HUVECs; assay type: cell-based; settings: Homo sapiens, HUVEC, read-out: IC50 of proliferation, all the cell types
Description: Cell proliferation assay was performed using several different kinds of breast cancer cells as well as human umbilical vein endothelial cells (HUVECs). […].
as §1

[3] = test system: Saccharomyces cerevisiae strain BY4743; assay: Yeast growth assay (wild type, map1Δ, map2Δ); assay type: cell-based; settings: drug on paper disc
Text: Saccharomyces cerevisiae strain BY4743 (MATa/α his3Δ1/his3Δ1 leu2Δ0/leu2Δ0 lys2Δ0/LYS2) and its isogenic haploid derivatives for MetAP1 (map1Δ) and MetAP2 (map2Δ) deletion mutants were used for yeast growth assays. Drugs dissolved in DMSO were spotted onto sterile filter disks and dried before experiments. Exponentially growing yeast strains were mixed with top agar and plated on YPD (1% yeast extract/2% peptone/2% glucose) plates. The filter disks were then placed on the YPD plates containing yeasts and the incubation was continued for 48 h at 30° C.

[4] = test system: N-terminal methionine processing of 14-3-3γ by hMetAP2; assay: N-terminal methionine processing of 14-3-3γ in HUVEC (Western blot); assay type: cell-based, human
Description: 14-3-3γ is known as a substrate of eukaryotic MetAPs and the inhibition of either isotype of MetAPs was reported to increase the N-terminal methionyl form of the protein.
Cells were lysed by adding 1 volume of 2× Laemmli buffer and were then boiled for 5 min. The samples were separated by SDS-PAGE and transferred to nitrocellulose membrane (Bio-Rad).

HUVEC [5] = assay: Senescence associated-β-galactosidase (SA-β-gal) staining in HUVEC; assay type: cell-based, human
Description: Cells in 6-well plates were washed with PBS and fixed with 3% paraformaldehyde. After washing with PBS, the cells were incubated for 24 h at 37° C. (without CO2, protected from light) in freshly prepared SA-β-gal staining solution containing 1 mg/ml 5-bromo-4-chloro-3-indolyl β-D-galactopyranoside (X-gal), 5 mM potassium ferrocyanide, 5 mM potassium ferricyanide, 150 mM NaCl, 2 mM MgCl2 and 40 mM citric acid, titrated with NaH2PO4 to pH 6.0. SA-β-gal solution was then removed and the cells were washed with PBS. The stained cells were observed under a microscope.

[6] = test system: acetylation of p53 (K382), α-tubulin and histone-H3; assay: Acetylation status of sirtuin substrates in HUVEC (Western blot); assay type: cell-based, human
Description: Cells were lysed by adding 1 volume of 2× Laemmli buffer and were then boiled for 5 min. The samples were separated by SDS-PAGE and transferred to nitrocellulose membrane (Bio-Rad). Proteins were detected using primary antibodies for p53 (Santa Cruz), met-14-3-3γ (Novus), p21 (Santa Cruz), Rb (Santa Cruz), MetAP2 (Hu, X. et al (2006) Proc. Natl. Acad. Sci. U.S.A. 103, 18148-18153), SirT1 (Santa Cruz), acetyl-p53-K382 (Abeam), acetyl-tubulin (Sigma), histone-H3 (Santa Cruz), acetyl-H3 (Santa Cruz) and α-tubulin (TU-02, Santa Cruz) followed by the incubation with horseradish peroxidase (HRP)-conjugated anti-mouse or anti-rabbit antibodies (Santa Cruz) and enhanced chemiluminescence (ECL, Amersham).

HUVEC [7] = assay: Endothelial cell tube formation assay; assay type: cell-based, human; settings: Matrigel; EX527 1 μM, TNP470 10 nM
Description: HUVEC were seeded on a 96-well plate (2×10^4 cells/well) coated with Matrigel. The cells were then incubated for 16˜18 h in a humidified 5% CO2 incubator at 37° C. The cells were washed carefully with PBS once and Calcein-AM solution in PBS was then added to a final concentration of 2 μM. After incubation for an additional 30 min, the cells were washed carefully with PBS and observed under a fluorescence microscope (485 nm excitation/520 nm emission). The tube formed was quantified using AngioQuant v1.33 (The MathWorks).

[8] = test system: HCC1954 human breast cancer cells; assay: Breast cancer xenografts; assay type: in vivo, mice
Description: Approximately two million of HCC1954 cells were injected bilaterally and subcutaneously into female athymic nude mice (NCR nu/nu, n=5/group). After tumors became palpable, control mice were treated with vehicle (peanut oil with 5% DMSO). […] The tumor volume was measured using a vernier caliper and calculated according to the modified ellipsoid formula: Tumor volume (mm^3)=(short axis)^2×(long axis)×π/6
After 30 days of treatment, the mice were sacrificed and the tumor tissues were extracted for immunohistochemical analysis and Western blots.

SirT2 = SirT2 (Homo sapiens, UniProt Q8IXJ6); assay: biochemical; settings: SirT2 IC50, recombinant human sirtuin, fluorogenic substrate
Description: (§2) The sirtuin fluorometric assay kits were obtained from Biomol. The assay was conducted according to the manufacturer's instruction. One unit of SirT1 was used per reaction. For SirT2 and SirT3, 2 units were used for the assay.

SirT3 = SirT3 (Homo sapiens, UniProt Q9NTG7); assay: biochemical
SirT3, sequence (Q9NTG7 whole entry): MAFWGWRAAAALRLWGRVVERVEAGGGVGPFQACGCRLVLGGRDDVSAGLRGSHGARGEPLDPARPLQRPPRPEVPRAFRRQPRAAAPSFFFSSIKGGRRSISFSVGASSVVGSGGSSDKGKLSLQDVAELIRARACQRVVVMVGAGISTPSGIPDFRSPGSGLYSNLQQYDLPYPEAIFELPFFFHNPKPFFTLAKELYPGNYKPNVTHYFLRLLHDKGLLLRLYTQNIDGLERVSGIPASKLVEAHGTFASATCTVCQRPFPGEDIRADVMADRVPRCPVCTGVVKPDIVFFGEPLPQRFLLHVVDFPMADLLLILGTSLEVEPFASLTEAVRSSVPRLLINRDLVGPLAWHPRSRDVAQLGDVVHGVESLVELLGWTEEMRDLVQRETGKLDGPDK
Description: as §2

SirT2, sequence (Q8IXJ6 whole entry): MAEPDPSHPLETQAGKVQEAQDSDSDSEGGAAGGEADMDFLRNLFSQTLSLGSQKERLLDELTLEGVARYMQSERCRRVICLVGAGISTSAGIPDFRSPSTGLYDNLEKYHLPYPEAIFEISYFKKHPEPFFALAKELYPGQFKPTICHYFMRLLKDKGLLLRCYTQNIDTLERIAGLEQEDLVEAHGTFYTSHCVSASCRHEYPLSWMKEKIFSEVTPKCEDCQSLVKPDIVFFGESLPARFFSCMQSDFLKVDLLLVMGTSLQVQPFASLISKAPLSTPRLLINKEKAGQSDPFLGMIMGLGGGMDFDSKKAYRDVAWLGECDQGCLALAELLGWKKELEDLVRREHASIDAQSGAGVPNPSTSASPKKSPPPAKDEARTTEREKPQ
T1 sequence (P50579 whole entry): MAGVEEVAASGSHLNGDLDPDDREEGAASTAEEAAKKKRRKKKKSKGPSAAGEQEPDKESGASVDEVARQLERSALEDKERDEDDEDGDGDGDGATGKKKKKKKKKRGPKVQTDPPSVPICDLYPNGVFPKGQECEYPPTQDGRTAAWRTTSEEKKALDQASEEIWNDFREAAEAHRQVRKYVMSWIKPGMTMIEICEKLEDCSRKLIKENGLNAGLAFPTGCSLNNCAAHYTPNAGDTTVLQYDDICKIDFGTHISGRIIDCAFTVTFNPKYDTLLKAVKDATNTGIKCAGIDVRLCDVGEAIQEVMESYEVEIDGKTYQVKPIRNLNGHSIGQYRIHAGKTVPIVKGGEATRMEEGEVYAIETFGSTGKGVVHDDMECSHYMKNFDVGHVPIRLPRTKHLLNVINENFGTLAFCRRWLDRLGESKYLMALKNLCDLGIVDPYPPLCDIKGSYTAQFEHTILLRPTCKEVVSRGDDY

In the case of `O=[N+]([O-])c1ccc(O)c2ncccc12` [Entry 1c, nitroxoline], the “potency on MetAP-2 with Co^2+ lower than with Mn^2+” value (hMetAP2) is reported as 25 fold, the IC50 (HUVEC [1]; read-out: Selectivity HUVEC IC50) is reported as 1.98 µM and the IC50 (HUVEC [1]; Table 4, read-out: HUVEC IC50) is reported as 1.98 µM. The IC50 (HFF) was 13.6 µM, the IC50 [2] was 2 to 5 µM and the “growth of MetAP-1 deletion mutant (map1Δ)” value ([3]; map1Δ) was “significantly inhibited”. For the same compound, the “growth of MetAP-2 deletion mutant” value ([3]; map2Δ) was “did not affect the growth”, the “growth of wild-type yeast” value ([3]; wild type) was “did not inhibit the yeast growth” and the “N-terminal methioninylated 14-3-3γ level” value ([4]; 24 h) was “dose-dependently increased”. The inhibition at 5 µM ([4]; Homo sapiens, read-out: inhibition of the processing of 14-3-3γ compared with hMetAP2 siRNA) was roughly 80%, the “premature senescence in HUVEC” value (HUVEC [5]; 72 h, valproic acid 0.1 mM, TNP-470 20 nM) was “induced premature senescence” and the reversibility of senescence (HUVEC [5]; 72 h treatment, then fresh media for an additional 48 h) was “remained senescent”. For the same compound, the “acetylation of p53-K382” value ([6]; HUVEC treated for 20 h) was “increased the acetylation of p53-K382”, the “acetylation status of tubulin or histone-H3” value ([6]; HUVEC, 6 h or 20 h) was “did not change the acetylation status” and the “acetylation of tubulin and histone-H3 in the presence of TSA” value ([6]; HUVEC, with TSA (200 nM), 24 h, nitroxoline 20 μM) was “significantly increased the acetylation of both tubulin and histone-H3”. For the same compound, the HUVEC tube formation (HUVEC [7]) was “inhibited”, the “level of p53 protein in tumor tissues” value ([8]; Western blot of tumor tissues) was “increased” and the “p53 acetylation in tumor tissues” value ([8]; Western blot of tumor tissues) was “significantly induced p53 acetylation”. The tumor-associated angiogenesis ([8]; anti-CD31 immunohistochemical staining) was “strongly inhibited”, the “inhibition of growth of HCC1954 xenografts” value ([8]; day 30, 60 mg/kg i.p., nude mice) was 55% and the IC50 (SirT2) was 43 µM and 35 µM. The IC50 (SirT3) was greater than 50 µM.
